The test system of data set [1] is glucoamylase/maltase (GM complex).
Protocol: (§1) Solution 1: 0.1 mol/L triethanolamine (TEA) buffer, pH 7.0
(§2) Solution 11: Glucoamylase/maltase enzyme complex in solution 1
(§3) i) 0.7 unit of the enzyme complex saccharase/isomaltase (solution 10) or glucoamylase/maltase (solution 11) was added in each case to 1.0 mL of a carbohydrate solution heated to 37° C. (solution 2 to solution 8), mixed and incubated at 37° C.
(§4) ii) For incubation under more severe conditions, 16 units of the enzyme complex saccharase/isomaltase or 13 units of the enzyme complex glucoamylase/maltase were used. The reaction was stopped after 2 h by heating to 95° C. for 15 min. The resulting monosaccharides and the undegraded saccharides of the relevant batches were quantitatively determined by HPAEC.
In data set [2] the target is saccharase/isomaltase (SI complex) (Sus scrofa, UniProt P56729). Description: Stability with respect to small intestine α-glucosidases: saccharase/isomaltase. The note with it: 120 min incubation. An excerpt: Solution 6: 1% solution of maltose in solution 1
Solution 7: 1% solution of sucrose in solution 1
Solution 8: 1% solution of isomalt in solution 1
Solution 9: 1% solution of isomaltulose in solution 1
Solution 10: Saccharase/isomaltase enzyme complex in solution 1

Another data set concerns human feces. Description: In vitro fermentation in human feces. In kind it is cell-based. The following applies: for Degradation rate: 0.5% (w/v) substrate, feces suspension, anaerobic, 37° C.; for Butyrate content (end sample): end of fermentation with human feces. The protocol: Incubation of carbohydrates with human feces allows statements to be made about the rate of metabolization by the bacterial population and formation of the short-chain fatty acid butyric acid.
To invest the fermentability in an in vitro fermentation experiment, Raftilose® P95 (fructooligosaccharides, DP4-5), galactosyl lactose (Oligomate DP 3) and lactosucrose were used for comparison as carbohydrates of similar structure and degree of polymerization, in addition to β-galactosyl isomalts.
An anaerobic medium of the following composition was used for the in vitro experiments:
9 mL of the anaerobic medium 1 described above are mixed with 0.5% (w/v) of the galactosyl isomalts to be tested (prepared according to Examples 1-3) and the corresponding controls lactosucrose and galactosyl lactose and then inoculated with 1 mL of a 10% feces suspension (mixed feces from two subjects) in anaerobic 50 mmol/L phosphate buffer, pH 7.0, to which 0.5 g/L cysteine/HCl was added beforehand as reducing agent.
The batches are then incubated in “Hungate” test tubes for a maximum of 28 h while shaking at 37° C. Samples are taken at various times and tested for content of residual oligosaccharides, short-chain fatty acids, lactic acid and pH.

The subject of data set [3] is glucoamylase/maltase (GM complex). As to the kind of experiment: Stability with respect to small intestine α-glucosidases: glucoamylase/maltase. The following applies: 120 min incubation.
Protocol: as §1, §2, §3, §4
Data set [4] in a line: Stability in the stomach: hydrolysis rate at pH 2.0. The format is physicochemical. The note with it: 1% solution, 10 mmol/L hydrochloric acid, pH 2.0, 37° C. Here is the method: The stability of a substance in the gastric passage can be simulated by determining the hydrolysis rate at pH 2.0. Sucrose and 1-kestose are used as controls.
In each case a 1% solution of the trisaccharides (DP 3) from Example 4 is incubated with 10 mmol/L hydrochloric acid, pH 2.0 at 37° C. for 3 h. Samples are taken from the reaction mixture after 60, 120 and 180 min and are analyzed by basic anion exchange chromatography, HPAEC.

The test system of another data set is lactase. As to the kind of experiment: Stability with respect to lactase. In kind it is in vitro ADME. The note with it: 0.9 unit lactase, 1% solution, 37° C., 6 h. An excerpt: The enzyme lactase that is present at the mucosa in the small intestine serves in vivo to break down lactose that gets into the small intestine and the resulting monosaccharides are absorbed into the bloodstream through the intestinal wall.
The enzyme lactase is isolated in a modified method of Wallenfels, K., and Fischer, J. (Z. Physiologische Chemie 321 (1960) 223).
Solutions 1-5: see Example 8c)
Solution 6: 1% solution of lactose in solution 1
Solution 7: 1% solution of isomalt in solution 1
Solution 8: Lactase in solution 1
(solutions 2-7), mixed and incubated at 37° C. The reaction is stopped after 6 h by heating to 95° C. for 15 min.

The subject of data set [5] is pancreatin enzyme (Sigma). Description: Stability with respect to pancreatic enzymes. The note with it: 1% solution, 0.2% pancreatin, pH 7.0, 210 min at 37° C. In kind it is in vitro ADME. The protocol:
The pancreatic secretion contains a large number of hydrolases, including carbohydrate-degrading enzymes like α-amylase, which breaks down α-1,4-glucans (starch, glycogen) preferably to maltose and maltooligosaccharides. The test of the stability of saccharides with respect to pancreatic enzymes is carried out as follows.
3.0 mL of a carbohydrate solution (solution 2 to solution 6) is mixed with 0.1 mL of the enzyme solution (solution 7) per batch:
Solution 1: 20 mmol/L Na phosphate buffer, pH 7.0, with 6 mmol/L NaCl
Solution 2: 1% solution of β-1,4-galactosyl isomalt mixture in accordance with the invention, prepared according to Example 2 and Example 4, in solution 1
Solution 3: 1% solution of β-1,3-galactosyl isomalt mixture in accordance with the invention, prepared according to Example 1 and Example 4, in solution 1
Solution 4: 1% solution of β-1,6-galactosyl isomalt mixture in accordance with the invention; prepared according to Example 3 and Example 4, in solution 1
Solution 6: 1% starch solution (soluble starch, according to Zulkowski), in solution 1
Solution 7: 0.2% pancreatin enzyme (Sigma), dissolved in solution 1
After 210 min incubation in a thermomixer (interval shaking) at 37° C., the reaction is stopped by heating to 95° C. for 15 min and the samples are analyzed by HPAEC. The starch-containing sample (solution6+solution 7) is completely hydrolyzed before the HPAEC analysis by heating for 3 h in 1 mol/L hydrochloric acid at 95° C., and the glucose resulting from this is determined in order to calculate the starch content of the sample.

Where [6] appears, read: Standard (0.7 unit), 37° C., pH 7.0.

Where two headings read alike, the source gives them in different places.

Sequence of saccharase/isomaltase (SI complex) (P56729 with tags, fused parts or gaps limits assumed): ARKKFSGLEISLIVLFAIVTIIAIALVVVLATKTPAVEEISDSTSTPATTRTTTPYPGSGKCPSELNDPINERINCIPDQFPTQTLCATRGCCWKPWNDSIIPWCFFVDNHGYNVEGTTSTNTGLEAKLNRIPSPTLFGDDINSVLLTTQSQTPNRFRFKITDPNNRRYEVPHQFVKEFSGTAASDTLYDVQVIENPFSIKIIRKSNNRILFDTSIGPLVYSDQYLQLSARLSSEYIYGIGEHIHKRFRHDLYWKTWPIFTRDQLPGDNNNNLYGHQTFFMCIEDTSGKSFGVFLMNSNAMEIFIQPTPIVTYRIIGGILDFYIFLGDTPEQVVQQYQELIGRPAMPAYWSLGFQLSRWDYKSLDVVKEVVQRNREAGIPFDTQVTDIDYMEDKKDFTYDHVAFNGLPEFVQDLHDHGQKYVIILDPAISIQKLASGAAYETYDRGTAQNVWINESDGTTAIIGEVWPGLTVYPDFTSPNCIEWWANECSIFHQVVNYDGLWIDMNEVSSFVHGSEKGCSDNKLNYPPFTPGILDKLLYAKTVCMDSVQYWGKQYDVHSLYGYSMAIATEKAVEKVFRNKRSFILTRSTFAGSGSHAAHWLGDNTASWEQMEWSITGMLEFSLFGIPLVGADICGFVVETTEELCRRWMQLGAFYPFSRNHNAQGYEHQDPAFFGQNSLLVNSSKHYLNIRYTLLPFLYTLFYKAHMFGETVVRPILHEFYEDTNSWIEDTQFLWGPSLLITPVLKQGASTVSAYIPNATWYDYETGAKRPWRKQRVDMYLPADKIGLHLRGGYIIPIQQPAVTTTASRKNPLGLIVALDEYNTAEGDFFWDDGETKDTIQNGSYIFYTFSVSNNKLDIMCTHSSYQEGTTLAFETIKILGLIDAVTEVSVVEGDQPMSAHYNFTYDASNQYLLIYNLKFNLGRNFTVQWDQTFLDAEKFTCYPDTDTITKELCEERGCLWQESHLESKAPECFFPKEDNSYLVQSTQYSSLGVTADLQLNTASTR
Sequence of saccharase/isomaltase (SI complex) (P56729 with tags, fused parts or gaps limits assumed): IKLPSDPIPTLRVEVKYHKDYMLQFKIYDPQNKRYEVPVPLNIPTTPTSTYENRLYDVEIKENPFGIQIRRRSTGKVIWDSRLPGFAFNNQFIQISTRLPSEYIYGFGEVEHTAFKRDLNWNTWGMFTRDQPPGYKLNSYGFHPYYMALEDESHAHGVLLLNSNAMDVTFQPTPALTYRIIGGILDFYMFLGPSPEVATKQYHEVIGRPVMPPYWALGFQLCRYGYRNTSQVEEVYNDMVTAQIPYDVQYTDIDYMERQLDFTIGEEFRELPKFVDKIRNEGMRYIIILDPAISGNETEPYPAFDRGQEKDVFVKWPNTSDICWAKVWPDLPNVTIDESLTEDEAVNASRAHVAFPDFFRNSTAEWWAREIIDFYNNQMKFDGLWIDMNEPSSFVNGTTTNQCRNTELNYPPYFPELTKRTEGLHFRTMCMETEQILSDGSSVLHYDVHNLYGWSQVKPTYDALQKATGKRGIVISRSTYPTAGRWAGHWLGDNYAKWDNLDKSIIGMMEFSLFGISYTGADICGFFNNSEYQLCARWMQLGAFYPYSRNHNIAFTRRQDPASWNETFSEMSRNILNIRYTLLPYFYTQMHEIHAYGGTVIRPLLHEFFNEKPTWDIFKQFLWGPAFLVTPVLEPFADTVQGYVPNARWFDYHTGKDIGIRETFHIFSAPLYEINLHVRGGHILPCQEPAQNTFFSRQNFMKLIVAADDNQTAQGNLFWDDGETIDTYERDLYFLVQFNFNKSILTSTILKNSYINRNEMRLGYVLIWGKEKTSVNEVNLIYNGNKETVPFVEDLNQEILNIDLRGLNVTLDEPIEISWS

As for Isomalt, the “Hydrolysis rate [%]” value in data set [1] is on record as 12.8%; in data set [1] (pH 7) it was 0%; in data set [2] (More stringent (16 units)) it was 52.4%; in data set [2] (More stringent (16 units), listed as isomalt) it was 52%; in data set [2] (setting [6]), 3.5%; in data set [2] (Standard (0.7 unit), 37° C., pH 7.0, listed as isomalt) it was “partially broken down”.

`OCC1O[C@@H](O[C@@H]2C(CO)O[C@H](OC[C@@H](O)[C@@H](O)[C@H](O)C(O)CO)C(O)C2O)C(O)C(O)[C@H]1O` (mixture of isomers) [β-1,4-Galactosyl isomalt, β-D-galactosyl-(1→4)-α-D-glucosyl-(1→6)-D-sorbitol (β-1,4-galactosyl-1,6-GPS) and β-D-galactosyl-(1→4)-α-D-glucosyl-(1→1)-D-mannitol(β-1,4-galactosyl-1,1-GPM)]: the values for the Degradation rate in the data set on human feces (incubation time 7 (h)), in the data set on human feces (incubation time 22 (h)) and in the data set with human feces (incubation time 28 (h)) were 61%, 97.7% and 96%, respectively. Also, the “Hydrolysis rate [%]” value is given as 0% in data set [3] (More stringent (13 units)); 0% in data set [3] (setting [6]); 0% in data set [4] (incubation time 0 min); 0% in data set [4] (incubation time 60 min); 0% in data set [4] (incubation time 120 min); less than 1% in data set [4] (incubation time 180 min). In addition, the “Hydrolysis rate [%], incubation with lactase” value in the data set on lactase is on record as 13.4%. Further, the “Decomposition rate [%]” value in data set [5] is reported as less than 1%.

As for `OC[C@H]1O[C@@H](O[C@H]2[C@H](O)[C@@H](O)C(O)O[C@@H]2CO)[C@H](O)[C@@H](O)[C@H]1O` (some centres unmarked) [Lactose, reference compound], the entries for the “Hydrolysis rate [%], incubation with lactase” value in the data set on lactase and in the data set with lactase (listed as lactose) were 95.6% and “Nearly complete hydrolysis”, respectively.

Regarding `OC[C@H]1O[C@@H](O[C@H]2[C@H](O)[C@@H](O)[C@@H](O[C@]3(CO)O[C@H](CO)[C@@H](O)[C@@H]3O)O[C@@H]2CO)[C@H](O)[C@@H](O)[C@H]1O` [Lactosucrose, reference compound], the “content of butyrate formed at the end of the fermentations” value in the data set with human feces is given as “about 6 mmol/L”. Moreover, in the data set with human feces, the “Butyrate content (end sample)” value worked out at 6.5 mmol/L. The Degradation rate in the data set with human feces (incubation time 7 (h)) was 98.9%; with human feces (incubation time 7 (h), listed as lactosucrose) it was “nearly completely metabolized”; in the data set with human feces (incubation time 14 (h)), 100%.

As for “galactosyl lactose [Galactosyl-Lactose (Oligomate DP 3), reference compound]”, the “content of butyrate formed at the end of the fermentations” value in the data set on human feces is recorded as “about 6 mmol/L”. In addition, the “Butyrate content (end sample)” value in the data set on human feces was 6.3 mmol/L. For the same compound, the Degradation rate in the data set on human feces (incubation time 7 (h)) was 96.6%; in the data set on human feces (incubation time 7 (h), listed as galactosyl lactose), “nearly completely metabolized”; with human feces (incubation time 14 (h)) it was 99.5%; in the data set with human feces (incubation time 22 (h)), 100%.

`OC[C@H]1O[C@H](O[C@H]2[C@H](O)[C@@H](O)[C@H](O)O[C@@H]2CO)[C@H](O)[C@@H](O)[C@@H]1O` [Maltose]: the “Hydrolysis rate [%]” value in data set [3] (setting [6]) was “Nearly complete hydrolysis”.

Consider `OC[C@H]1O[C@@](CO)(OC[C@@]2(O[C@H]3O[C@H](CO)[C@@H](O)[C@H](O)[C@H]3O)O[C@H](CO)[C@@H](O)[C@@H]2O)[C@@H](O)[C@@H]1O` [1-Kestose, reference compound], for which the “Hydrolysis rate [%]” value in data set [4] (incubation time 0 min) is on record as 0%; in data set [4] (incubation time 60 min), 11%; in data set [4] (incubation time 120 min), 25%; in data set [4] (incubation time 180 min) it was 36%.

Consider `OC[C@H]1O[C@@](CO)(O[C@H]2O[C@H](CO)[C@@H](O)[C@H](O)[C@H]2O)[C@@H](O)[C@@H]1O` [Sucrose, reference compound], for which the “Hydrolysis rate [%]” value is listed as 0% in data set [4] (incubation time 0 min); 2% in data set [4] (incubation time 60 min); 5% in data set [4] (incubation time 120 min); 8% in data set [4] (incubation time 180 min); “Nearly complete hydrolysis” in data set [2] (Standard (0.7 unit), 37° C., pH 7.0, listed as saccharose).

For the compound `OCC1O[C@@H](OCC2O[C@H](OC[C@@H](O)[C@@H](O)[C@H](O)C(O)CO)C(O)C(O)[C@@H]2O)C(O)C(O)[C@H]1O` (mixture of isomers) [β-1,6-Galactosyl isomalt, β-D-galactosyl-(1→6)-α-D-glucosyl-(1→6)-D-sorbitol(β-1,6-galactosyl-1,6-GPS) and β-D-galactosyl-(1→6)-α-D-glucosyl-(1→1)-D-mannitol(β-1,6-galactosyl-1,1-GPM)], in the data set with human feces, the “Butyrate content (end sample)” value came to 15.3 mmol/L. Moreover, the Degradation rate in the data set on human feces (incubation time 7 (h)) came to 64.2%; in the data set on human feces (incubation time 22 (h)) it was 96.1%; with human feces (incubation time 28 (h)), 99.2%. Besides, the “Hydrolysis rate [%]” value in data set [3] (More stringent (13 units)) was 0%; in data set [3] (setting [6]), 0%; in data set [4] (incubation time 0 min), 0%; in data set [4] (incubation time 60 min) it was 0%; in data set [4] (incubation time 120 min), 0%; in data set [4] (incubation time 180 min), less than 1%. Moreover, in the data set on lactase, the “Hydrolysis rate [%], incubation with lactase” value is recorded as 9.3%. Also, the “Decomposition rate [%]” value in data set [5] is less than 1%.

For the compound `OC[C@H]1O[C@H](OC[C@H]2O[C@](O)(CO)[C@@H](O)[C@@H]2O)[C@H](O)[C@@H](O)[C@@H]1O` [Isomaltulose, 6-O-α-D-glucopyranosyl-(1→6)-β-D-fructofuranose], the “Hydrolysis rate [%]” value in data set [1] came out at 39.9%; in data set [1] (pH 7), 3.1%; in data set [2] (More stringent (16 units)), 79.0%; in data set [2] (setting [6]), 18.0%.

Values taken from patent US20060008574A1, “Galactosyl isomalt, method for production and use thereof” (priority 2002, published 2006).
